Data as given in patent US20230044787A1, “TRICYCLE DIHYDROIMIDAZOPYRIMIDONE DERIVATIVE, PREPARATION METHOD THEREOF, PHARMACEUTICAL COMPOSITION AND USE THEREOF” (priority 2019, published 2023).

Target: T1, Lp-PLA2 (Homo sapiens, UniProt Q13093)
T1 construct: aliquoted and thawed 40 μL of pooled human plasma was previously added; from tissue; host or cells: pooled human plasma
T1 sequence (Q13093 22-441): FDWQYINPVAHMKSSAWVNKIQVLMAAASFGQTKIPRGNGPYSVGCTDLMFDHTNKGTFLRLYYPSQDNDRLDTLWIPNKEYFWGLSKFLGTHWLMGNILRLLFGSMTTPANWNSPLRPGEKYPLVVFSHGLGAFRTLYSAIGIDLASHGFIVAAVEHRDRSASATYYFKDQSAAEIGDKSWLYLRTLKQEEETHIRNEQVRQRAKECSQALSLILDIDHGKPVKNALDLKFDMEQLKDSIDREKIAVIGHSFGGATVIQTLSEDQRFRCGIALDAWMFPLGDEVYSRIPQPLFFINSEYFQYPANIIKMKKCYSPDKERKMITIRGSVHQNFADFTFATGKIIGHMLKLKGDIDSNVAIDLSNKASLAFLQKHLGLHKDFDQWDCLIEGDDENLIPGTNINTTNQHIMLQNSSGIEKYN
Test: Lipoprotein-associated phospholipase A2 (Lp-PLA2) human plasma assay (Thio-PAF assay)
Assay type: biochemical
Conditions: pooled human plasma

[1] = Lp-PLA2 human plasma assay (Thio-PAF), 30-min pre-incubation at room temperature

| IC50 [1] [nM] | IC50 (Comparison of activity data (I), 2-thio-PAF substrate, 30-min pre-incubation) [nM] | Compound |
| --- | --- | --- |
| 5.7 | – | COc1c(OCc2cc(F)c(F)c(F)c2)nc(=O)n2c1N1CC3CC1(C3)C2 [Example 151] |
| 3.7 | – | O=c1nc(OCc2ccc(Oc3ccnc(Cl)c3)c(F)c2)cc2n1CC13CC(CN21)C3 [Example 155] |

More lines, now with the values behind:

| Compound | IC50 [1] [nM] | IC50 (Comparison of activity data (I), 2-thio-PAF substrate, 30-min pre-incubation) [nM] |
| --- | --- | --- |
| O=c1nc(OCc2ccc(Oc3cnc(C(F)(F)F)nc3)c(F)c2)cc2n1CC13CCC(CC1)N23 [Example 128, 3-((3-fluoro-4-((2-(trifluoromethyl)pyrimidin-5-yl)oxy)benzyl)oxy)-7,8-dihydro-1H,6H,9H-6,8a-ethanopyrrolo[1′,2′:3,4] imidazo[1,2-c]pyrimidin-1-one] | 8.4 | – |
| O=c1nc(OCc2cc(F)c(F)c(F)c2)cc2n1CC1COCCN21 (racemic) [Corresponding racemate of Example 123 in WO2016011930A1, reference compound] | – | 63.3 |
| O=c1nc(OCc2ccc(Oc3cccc(C(F)(F)F)c3)c(F)c2)cc2n1CC13CCC(CC1)N23 [Example 126, 3-((3-fluoro-4-(3-(trifluoromethyl)phenoxy)benzyl)oxy)-7,8-dihydro-1H,6H,9H-6,8a-ethanopyrrolo[1′,2′:3,4] imidazo[1,2-c]pyrimidin-1-one] | 5 | – |
